Measured values reported in patent publication US12162863B2, “Modulators of stimulator of interferon genes (STING)” (RYVU THERAPEUTICS S.A., priority 2018, dated 2024).

Experiments:
[1] = tested on: NF-κB pathway in THP-1 dual cells; test: THP-1 Dual Reporter Assay, NF-κB pathway (SEAP reporter); assay type: cell-based; settings: Homo sapiens, THP1-Dual, 18 h of stimulation, absorbance at 630 nm, read-out: THP1 Dual EC50 (μM) NFkB
Procedure: (§1) THP-1 Dual Reporter Assay
(§2) Compounds of the present invention were tested for their activity using THP-1 dual cells (Invivogen, cat no. thpd-nfis) allowing for simultaneous study of NF-κB pathway and the interferon regulatory factor (IRF) pathway. THP-1 dual cells contain luciferase reporter gene under the control of an ISG54 (interferon-stimulated gene) minimal promoter in conjunction with five interferon-stimulated response elements and a secreted embryonic alkaline phosphatase reporter gene under the control an IFN (interferon)-β minimal promoter fused to five copies of the NF-κB consensus transcriptional response element with three copies of the c-Rel binding site. Following 18 h of stimulation with STING agonist, medium was collected and transferred onto fresh cell culture plate. To verify activity of the IRF pathway, luminescence activity was measured with standard laboratory plate reader immediately after addition 10 μl of the medium to 50 μl of luminescence reagent (Invivogen, cat. No. rep-qlc2). To verify activity of NF-κB pathway, 20 μl of the medium was mixed with 80 μl of a detection medium (Invivogen, cat. No. rep-qb2) and incubated for 2 hours at 37° C. in a humidified atmosphere containing 5% CO2. Next, absorbance at 630 nm was recorded using standard laboratory plate reader.

[2] = target: human STING (Homo sapiens, UniProt Q86WV6); test: Fluorescence Thermal Shift assay; assay type: binding; settings: 50 μM compound; STING 0.1 mg/ml; 20 minutes preincubation; read-out: [hSTING] FTS, ΔTm [° C.] for 50 μM
human STING, sequence (Q86WV6 whole entry H232R): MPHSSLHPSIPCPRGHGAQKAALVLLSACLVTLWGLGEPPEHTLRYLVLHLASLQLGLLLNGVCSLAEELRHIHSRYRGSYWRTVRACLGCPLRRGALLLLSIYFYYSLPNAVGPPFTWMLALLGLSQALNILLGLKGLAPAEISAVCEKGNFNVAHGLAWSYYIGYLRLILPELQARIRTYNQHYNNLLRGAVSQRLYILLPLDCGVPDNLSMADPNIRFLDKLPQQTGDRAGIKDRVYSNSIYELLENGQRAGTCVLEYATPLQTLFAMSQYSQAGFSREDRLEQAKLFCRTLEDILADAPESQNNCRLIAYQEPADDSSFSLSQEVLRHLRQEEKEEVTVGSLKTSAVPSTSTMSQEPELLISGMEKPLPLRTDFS
Procedure: Fluorescence Thermal Shift Assay Compounds of the present invention were tested for binding to human STING in Fluorescence Thermal Shift assay. STING was preincubated with the compounds for 20 minutes in 50 mM Hepes, 150 mM NaCl, pH 7.5 in 16 μl volume, following by adding 4 μl of SyproOrange dye dilution (ThermoFisher, cat no. S-6651). Final STING concentration was 0.1 mg/ml. Thermal unfolding was performed in Real-Time PCR QuantStudio 6 Flex System (Applied Biosystems), from 25 to 99° C., with continuous ramp mode and ramp rate 0.033° C./s. The data were analyzed using Protein Thermal Shift Software (ThermoFisher). […] For example, ΔTm [° C.] of FTS assay for following examples are: […]

[3] = tested on: interferon regulatory factor (IRF) pathway in THP-1 dual cells; test: THP-1 Dual Reporter Assay, IRF pathway (luciferase reporter); assay type: cell-based; settings: Homo sapiens, THP1-Dual, 18 h of stimulation, luminescence
Procedure: as §1, §2

Compound | EC50 [1] [µM] | ΔTm at 50 µM [2] [°C] | EC50 [3] [µM]
O=c1c(CN(CCCn2ccnc2)Cc2ccncc2)coc2ccc(F)cc12 [Example 29, 6-fluoro-3-({[3-(1H-imidazol-1-yl)propyl][(pyridin-4-yl)methyl]amino}methyl)-4H-chromen-4-one] | 10 to 20 | > 2.5 | ≤ 10
Cc1oc2cc(Br)ccc2c(=O)c1CN(CCCn1ccnc1)Cc1ccncc1 [Example 48, 7-bromo-3-({[3-(1H-imidazol-1-yl)propyl][(pyridin-4-yl)methyl]amino}methyl)-2-methyl-4H-chromen-4-one] | ≤ 10 | > 2.5 | ≤ 10
COc1ccc(CCCN(Cc2ccncc2)Cc2c(C)oc3c(C)c(C)ccc3c2=O)cn1 [Example 66, 3-({[3-(6-methoxypyridin-3-yl)propyl](pyridin-4-ylmethyl)amino}methyl)-2,7,8-trimethyl-4H-chromen-4-one] | ≤ 10 | < 2.5 | ≤ 10
COc1ccc2c(=O)c(CN(CCCn3ccnc3)Cc3ccncc3)coc2c1 [Example 9, 3-({[3-(1H-imidazol-1-yl)propyl](pyridin-4-ylmethyl)amino}methyl)-7-methoxy-4H-chromen-4-one] | ≤ 10 | > 2.5 | ≤ 10
Cc1oc2ccccc2c(=O)c1CN(CCCc1cccnc1)Cc1ccncc1 [Example 41, 2-methyl-3-({[3-(pyridin-3-yl)propyl][(pyridin-4-yl)methyl]amino}methyl)-4H-chromen-4-one] | 10 to 20 | > 2.5 | 10 to 20
O=c1c(CN(CCCn2ccnn2)Cc2ccncc2)coc2ccccc12 [Example 4, 3-{[(pyridin-4-ylmethyl)[3-(1H-1,2,3-triazol-1-yl)propyl]amino]methyl}-4H-chromen-4-one] | ≥ 20 | < 2.5 | ≥ 20
COc1cc(CN(Cc2cn(C)c3ccccc3c2=O)C(C)CCc2cccnc2)ccn1 (stereo not drawn) [Example 97, 3-({[(2-methoxypyridin-4-yl)methyl][4-(pyridin-3-yl)butan-2-yl]amino}methyl)-1-methyl-1,4-dihydroquinolin-4-one] | ≤ 10 | > 2.5 | ≤ 10
COc1cc(CN(CCCn2cnc3cncnc32)Cc2c(C)oc3cc(N4CCN(C)CC4)c(F)cc3c2=O)ccn1 [Example 84, 6-fluoro-2-methyl-7-(4-methylpiperazin-1-yl)-3-({[3-(9H-purin-9-yl)propyl][(2-methoxypyridin-4-yl)methyl]amino}methyl)-4H-chromen-4-one] | ≤ 10 | > 2.5 | 10 to 20
O=c1c(CN(CCCn2ccnc2)Cc2ccncc2)coc2cc(Br)ccc12 [Example 10, 7-bromo-3-({[3-(1H-imidazol-1-yl)propyl](pyridin-4 ylmethyl)amino}methyl)-4H-chromen-4-one] | 10 to 20 | > 2.5 | ≤ 10
COc1ccc2ccc3c(=O)c(CN(CCCc4cccnc4)Cc4ccncc4)coc3c2c1 [Example 52, 9-methoxy-3-({[3-(pyridin-3-yl)propyl][(pyridin-4-yl)methyl]amino}methyl)-4H-benzo[h]chromen-4-one] | ≤ 10 | > 2.5 | ≤ 10
COc1cc(CN(CCCn2ccnc2)Cc2coc3cc(N4CCN(C)CC4)ccc3c2=O)ccn1 [Example 34, 3-({[3-(1H-imidazol-1-yl)propyl][(2-methoxypyridin-4-yl)methyl]amino}methyl)-7-(4-methylpiperazin-1-yl)-4H-chromen-4-one] | 10 to 20 | < 2.5 | ≥ 20
O=c1c(CN(CCCn2ccnc2)Cc2ccncc2)coc2c1cc(F)c1ccccc12 [Example 47, 6-fluoro-3-({[3-(1H-imidazol-1-yl)propyl][(pyridin-4-yl)methyl]amino}methyl)-4H benzo[h]chromen-4-one] | ≤ 10 | > 2.5 | ≤ 10
O=c1c(CN(CCCCn2ccnc2)Cc2ccncc2)coc2ccccc12 [Example 1, 3-({[4-(1H-imidazol-1-yl)butyl](pyridin-4-ylmethyl)amino}methyl)-4H-chromen-4-one] | ≥ 20 | < 2.5 | 10 to 20
O=c1c(CN(CCCc2cccnc2)Cc2ccncc2)coc2c1ccc1ccccc12 [Example 28, 3-({[3-(pyridin-3-yl)propyl](pyridin-4-ylmethyl)amino}methyl)-4H-benzo[h]chromen-4-one] | ≤ 10 | > 2.5 | ≤ 10
O=c1c(CN(CCCn2ccnc2)Cc2ccncc2)coc2cc(Br)c(F)cc12 [Example 37, 7-bromo-6-fluoro-3-({[3-(1H-imidazol-1-yl)propyl][(pyridin-4-yl)methyl]amino}methyl)-4H-chromen-4-one] | ≤ 10 | > 2.5 | ≤ 10
Cc1oc2c(ccc3ccccc32)c(=O)c1CN(CCCn1ccnc1)Cc1ccncc1 [Example 67, 3-({[3-(1H-imidazol-1-yl)propyl][(pyridin-4-yl)methyl]amino}methyl)-2-methyl-4H-benzo[h]chromen-4-one] | ≤ 10 | > 2.5 | ≤ 10

Second part, the molecule after the results:

EC50 [1] [µM] | ΔTm at 50 µM [2] [°C] | EC50 [3] [µM] | Compound
≥ 20 | < 2.5 | ≥ 20 | COc1cc(CN(CCCn2cnc3ncncc32)Cc2cn(C)c3ccccc3c2=O)ccn1 [Example 91, 3-({[(2-methoxypyridin-4-yl)methyl][3-(7H-purin-7-yl)propyl]amino}methyl)-1-methyl-1,4-dihydroquinolin-4-one]
≥ 20 | > 2.5 | ≥ 20 | COc1cc(CN(CCCn2cnc3ccccc32)Cc2c[nH]c3ccccc3c2=O)ccn1 [Example 88, 3-({[3-(1H-1,3-benzodiazol-1-yl)propyl][(2-methoxypyridin-4-yl)methyl]amino}methyl)-1,4-dihydroquinolin-4-one]
≤ 10 | > 2.5 | ≤ 10 | O=c1c(CN(CCCn2cnc3ccccc32)Cc2ccncc2)coc2c1ccc1ccccc12 [Example 50, 3-({[3-(1H-1,3-benzodiazol-1-yl)propyl][(pyridin-4-yl)methyl]amino}methyl)-4H-benzo[h]chromen-4-one]
≤ 10 | < 2.5 | ≤ 10 | CC(CCn1cnc2ccccc21)N(Cc1ccncc1)Cc1coc2c(ccc3ccccc32)c1=O (stereo not drawn) [Example 72, 3-({[4-(1H-1,3-benzodiazol-1-yl)butan-2-yl](pyridin-4-ylmethyl)amino}methyl)-4H-benzo[h]chromen-4-one]
≥ 20 | < 2.5 | ≥ 20 | CCn1cc(CN(CCCn2ccnc2)Cc2ccncc2)c(=O)c2ccccc21 [Example 43, 1-ethyl-3-({[3-(1H-imidazol-1-yl)propyl](pyridin-4-ylmethyl)amino}methyl)-1,4-dihydroquinolin-4-one]
≤ 10 | < 2.5 | ≤ 10 | COc1cc(CN(CCCn2cnc3cncnc32)Cc2cn(C)c3ccccc3c2=O)ccn1 [Example 89, 3-({[(2-methoxypyridin-4-yl)methyl][3-(9H-purin-9-yl)propyl]amino}methyl)-1-methyl-1,4-dihydroquinolin-4-one]
≥ 20 | < 2.5 | 10 to 20 | COc1cc(CN(CCCn2ccnc2)Cc2cn(C)c3ccccc3c2=O)ccn1 [Example 44, 3-({[3-(1H-imidazol-1-yl)propyl][(2-methoxypyridin-4-yl)methyl]amino}methyl)-1-methyl-1,4-dihydroquinolin-4-one]
≥ 20 | < 2.5 | ≥ 20 | COc1cc(CN(CCCn2cc(C(N)=O)nn2)Cc2cn(C)c3ccccc3c2=O)ccn1 [Example 103, 1-(3-{[(2-methoxypyridin-4-yl)methyl][(1-methyl-4-oxo-1,4-dihydroquinolin-3-yl)methyl]amino}propyl)-1H-1,2,3-triazole-4-carboxamide]
10 to 20 | > 2.5 | ≤ 10 | Cn1cc(CN(CCCc2cccnc2)Cc2ccnc(Cl)c2)c(=O)c2ccccc21 [Example 90, 3-({[(2-chloropyridin-4-yl)methyl][3-(pyridin-3-yl)propyl]amino}methyl)-1-methyl-1,4-dihydroquinolin-4-one]
≤ 10 | > 2.5 | ≤ 10 | Cc1cc(CN(CCCn2cnc3ccccc32)Cc2cn(C)c3ccccc3c2=O)ccn1 [Example 100, 3-({[3-(1H-1,3-benzodiazol-1-yl)propyl][(2-methylpyridin-4-yl)methyl]amino}methyl)-1-methyl-1,4-dihydroquinolin-4-one]
